Measurements reported in patent publication US20050256103A1, “Indole derivative having piperidine ring” (Eisai Co., Ltd., priority 2004, published 2005).

Key:
serotonin 1A receptor = biological target: T1, serotonin 1A receptor (Mus musculus, UniProt Q64264); assay: Antagonistic effect on serotonin 1A receptor agonist (8-OH-DPAT)-induced hypothermia in mouse; assay type: in vivo; conditions: CD-1 (ICR) male mice; inhibition of hypothermia by 8-OH-DPAT 0.5 mg/kg sc; test substance 15 minutes before agonist
T1 construct: into the rectum of CD-1 (ICR) male mice (25-45 g); from tissue; host or cells: living CD-1 (ICR) male mice (in vivo)
T1 sequence (Q64264 1-421): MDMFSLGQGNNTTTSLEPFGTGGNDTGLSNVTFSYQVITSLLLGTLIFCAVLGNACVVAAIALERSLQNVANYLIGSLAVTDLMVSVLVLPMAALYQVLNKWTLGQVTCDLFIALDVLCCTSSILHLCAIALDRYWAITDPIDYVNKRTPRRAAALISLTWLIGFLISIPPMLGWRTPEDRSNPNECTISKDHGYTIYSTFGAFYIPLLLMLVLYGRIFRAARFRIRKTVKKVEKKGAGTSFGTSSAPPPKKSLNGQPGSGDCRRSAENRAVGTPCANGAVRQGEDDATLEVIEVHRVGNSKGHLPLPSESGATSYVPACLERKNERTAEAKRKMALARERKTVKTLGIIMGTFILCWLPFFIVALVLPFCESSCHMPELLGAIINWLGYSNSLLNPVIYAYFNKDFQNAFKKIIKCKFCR
Procedure, shortened: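 CD-1 (ICR) male mice, 25-45 g; rectal temperature by thermistor probe at about 2 cm depth. Test substance given 15 min before s.c. 8-OH-DPAT […]; antagonism scored as inhibition of the induced hypothermia.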

[1] = test system: urinary reflex of Sprague-Dawley female rats; assay: Inhibitory action against accentuated urinary reflex of rat due to destruction of the superior colliculus (cystometrogram); assay type: in vivo; conditions: dose 0.3 mg/kg, iv; rat with superior colliculus lesion
Text: (1) In the present test, Sprague-Dawley female rates (200-350 g) were used. The rats were subjected to median incision of the abdomen under anesthesia. Thereafter, a hole with a minor diameter was made on the head portion of the bladder, and a catheter used for measurement of an intravesical pressure was placed therein. A catheter used for administration of a test substance was placed in the femoral vein. These catheters were fixed at the occipital region of the rat through the subcutis. One day later, the urinary reflex of the rats was measured with a cystometrogram. Thereafter, the rats were fixed on a brain stereotaxis apparatus under anesthesia, and then subjected to median incision of the scalp. […] Thereafter, electric current was applied (65° C., 4 minutes), so as to damage the brain tissues. After completion of the operation, when the rat awakened from anesthesia, cystometrogram was conducted again to confirm the enhanced state of urinary reflex. A test substance was administered through the catheter placed in the femoral vein, and the action of the test substance to the urinary reflex was evaluated. In addition, the effects of several test substances were compared using the maximal reaction (Emax).

ED50 (serotonin 1A receptor): 0.03 mg/kg, sc
SMILES: CNC(=O)c1ccc2ccn(C3CCN(CCc4c(OC)ccc5c4OC(C)(C)CC5=O)CC3)c2c1 [Compound 20, 1-{1-[2-(7-methoxy-2,2-dimethyl-4-oxochroman-8-yl)ethyl]piperidin-4-yl}-N-methyl-1H-indole-6-carboxamide]
Bladder capacity Emax [1]: 94%
